Results reported in the supplement of paper PMC11061612.

Assays:
[1] = test system: HOP-92 (Non-Small Cell Lung Carcinoma); assay: combination Emax (second highest fraction inhibited in the dose matrix, 72 h); higher = more inhibition; extreme values may be limits of the assay
Outline: (§1)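 Bliss excess equals the observed combination effect minus the expected value EA + EB − EA·EB, where EA and EB are the effects of each agent alone. Combination Emax is the second-highest inhibition within the matrix. Inhibition was scaled from CellTiter-Glo 2.0 luminescence, with 0 set by vehicle wells and 1 by blank wells, after 72 hours of two-drug dosing of cells plated in 1536-well plates.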

Saos-2 (Osteosarcoma) [2] = assay: as above
Outline: as §1

EW-22 (Ewing's Sarcoma) [3] = assay: as above
Outline: as §1

[4] = test system: SW48 (Colorectal Carcinoma); assay: as above
Outline: as §1

[5] = test system: 647-V (Bladder Carcinoma); assay: as above
Outline: as §1

CS1 (Chondrosarcoma) = assay: as above
Outline: as §1

[6] = test system: P31-FUJ (Acute Myeloid Leukemia); assay: Bliss excess, mean over the matrix (fraction); higher = more synergy
Outline: as §1

[7] = test system: EFM-192A (Breast Carcinoma); assay: as above
Outline: as §1

Saos-2 (Osteosarcoma) [8] = assay: as above
Outline: as §1

EW-22 (Ewing's Sarcoma) [9] = assay: as above
Outline: as §1

[10] = test system: SK-UT-1 (Other Solid Carcinomas); assay: as above
Outline: as §1

[11] = test system: RCC10RGB (Kidney Carcinoma); assay: as above
Outline: as §1

[12] = test system: SW948 (Colorectal Carcinoma); assay: as above
Outline: as §1

D-392MG (Glioblastoma) = assay: as above
Outline: as §1

[13] = test system: YT (Other Blood Carcinomas); assay: as above
Outline: as §1

[14] = test system: PA-TU-8902 (Pancreatic Carcinoma); assay: as above
Outline: as §1

[15] = test system: TYK-nu (Ovarian Carcinoma); assay: as above
Outline: as §1

[16] = test system: BICR78 (Oral Cavity Carcinoma); assay: as above
Outline: as §1

[17] = test system: HCC-827 (Lung Adenocarcinoma); assay: as above
Outline: as §1

[18] = test system: SK-LMS-1 (Other Solid Carcinomas); assay: as above
Outline: as §1

Structure (SMILES) | combination Emax [1] | combination Emax (Saos-2 (Osteosarcoma) [2]) | combination Emax (EW-22 (Ewing's Sarcoma) [3]) | combination Emax [4] | combination Emax [5] | combination Emax (CS1 (Chondrosarcoma)) | Bliss excess [6] | Bliss excess [7] | Bliss excess (Saos-2 (Osteosarcoma) [8]) | Bliss excess (EW-22 (Ewing's Sarcoma) [9]) | Bliss excess [10] | Bliss excess [11] | Bliss excess [12] | Bliss excess (D-392MG (Glioblastoma)) | Bliss excess [13] | Bliss excess [14] | Bliss excess [15] | Bliss excess [16] | Bliss excess [17] | Bliss excess [18]
CN(CCO)CC[C@H](CSc1ccccc1)Nc1ccc(S(=O)(=O)NC(=O)c2ccc(N3CCC([C@@H](O)c4ccccc4-c4ccc(Cl)cc4)CC3)cc2)cc1S(=O)(=O)C(F)(F)F [AZD4320] + CN(C)CCCOc1ccc(-c2ccc3ncc4c(c3c2)n(C2CCOCC2)c(=O)n4C)cn1 [AZD0156] (first compound max 1 µM, 7x7, partner max 1 µM) | 0.899 | 0.193 | 0.897 | 0.517 | 0.172 | 0.427 | 0.0814 | -0.0468 | -0.0323 | 0.0228 | -0.0284 | -0.09 | -0.0566 | -0.044 | -0.0281 | -0.0511 | -0.1 | -0.0268 | -0.0351 | -0.0477
CN(CCO)CC[C@H](CSc1ccccc1)Nc1ccc(S(=O)(=O)NC(=O)c2ccc(N3CCC([C@@H](O)c4ccccc4-c4ccc(Cl)cc4)CC3)cc2)cc1S(=O)(=O)C(F)(F)F [AZD4320] + C=CCn1c(=O)c2cnc(Nc3ccc(N4CCN(C)CC4)cc3)nc2n1-c1cccc(C(C)(C)O)n1 [AZD1775] (first compound max 1 µM, partner max 1 µM) | 0.974 | 0.707 | 0.988 | 0.825 | 0.949 | 0.647 | 0.113 | 0.0171 | 0.0348 | 0.0897 | 0.0431 | -0.0183 | 0.0744 | 0.0474 | -0.0156 | -0.0357 | -0.0845 | 0.0149 | -0.0164 | 0.0447
CN(CCO)CC[C@H](CSc1ccccc1)Nc1ccc(S(=O)(=O)NC(=O)c2ccc(N3CCC([C@@H](O)c4ccccc4-c4ccc(Cl)cc4)CC3)cc2)cc1S(=O)(=O)C(F)(F)F [AZD4320] + Cc1cc2ncnn2cc1Nc1ncc2c(n1)n(C1CCOCC1)c(=O)n2C [AZD7648] (first compound max 1 µM, 7x7, partner max 10 µM) | 0.891 | 0.21 | 0.905 | 0.632 | 0.219 | 0.347 | -0.0229 | -0.0265 | -0.0389 | -0.0165 | -0.0195 | -0.077 | -0.0233 | -0.0614 | 0.0291 | -0.0429 | -0.0405 | -0.0167 | -0.0339 | 0.001
CC1(C)CCC(CN2CCN(c3ccc(C(=O)NS(=O)(=O)c4ccc(NCC5CCOCC5)c([N+](=O)[O-])c4)c(Oc4cnc5[nH]ccc5c4)c3)CC2)=C(c2ccc(Cl)cc2)C1 [Venetoclax] + COc1cc(Nc2ncc3c(n2)-c2ccc(Cl)cc2C(c2c(F)cccc2OC)=NC3)ccc1C(=O)O [Alisertib] (first compound max 1 µM, 7x7, partner max 10 µM) | 0.57 | 0.682 | 0.919 | 0.887 | 0.317 | 0.598 | 0.0678 | -0.0548 | 0.047 | 0.0313 | 0.0971 | -0.0943 | -0.0996 | -0.042 | 0.1 | -0.0664 | -0.0415 | -0.0276 | -0.0795 | 0.0215
NC1(C(=O)N[C@@H](CCO)c2ccc(Cl)cc2)CCN(c2ncnc3[nH]ccc23)CC1 [Capivasertib] + CC(C)n1c(=O)n(C)c2cnc3cc(F)c(-c4ccc(OCCCN5CCCCC5)nc4)cc3c21 [AZD1390] (first compound max 10 µM, 7x7, partner max 0.3 µM) | 0.376 | 0.473 | 0.437 | 0.497 | 0.22 | 0.298 | -0.169 | -0.062 | -0.0063 | -0.0613 | -0.0017 | -0.0676 | -0.0943 | -0.0645 | -0.0228 | -0.0859 | -0.116 | -0.0552 | -0.0793 | -0.045
CS(=O)(=O)CCNCc1ccc(-c2ccc3ncnc(Nc4ccc(OCc5cccc(F)c5)c(Cl)c4)c3c2)o1 [Lapatinib] + C[C@@H](Oc1cc(-c2cnn(C3CCNCC3)c2)cnc1N)c1c(Cl)ccc(F)c1Cl [Crizotinib] (first compound max 10 µM, 7x7, partner max 10 µM) | 0.937 | 0.889 | 0.887 | 0.911 | 0.906 | 0.797 | -0.142 | 0.0063 | -0.0452 | -0.0241 | -0.0392 | -0.0298 | -0.0834 | -0.0528 | -0.081 | 0.0068 | -0.0403 | 0.0073 | -0.038 | -0.0611
COc1cccc(OCCCN)c1-c1cc(Nc2cnc(C#N)cn2)n[nH]1 [Prexasertib] + O=C(c1cc(Cc2n[nH]c(=O)c3ccccc23)ccc1F)N1CCN(C(=O)C2CC2)CC1 [Olaparib] (first compound max 1 µM, 7x7, partner max 10 µM) | 0.665 | 0.806 | 0.957 | 0.658 | 0.843 | 0.706 | -0.0141 | -0.0365 | -0.0123 | -0.0447 | -0.0422 | -0.0784 | -0.0118 | -0.0698 | -0.0314 | -0.0783 | -0.0934 | -0.0261 | -0.0262 | -0.0676
Cn1cnc2c(F)c(Nc3ccc(Br)cc3Cl)c(C(=O)NOCCO)cc21 [Selumetinib] + C=CCn1c(=O)c2cnc(Nc3ccc(N4CCN(C)CC4)cc3)nc2n1-c1cccc(C(C)(C)O)n1 [AZD1775] (first compound max 10 µM, partner max 1 µM) | 0.503 | 0.551 | 0.573 | 0.433 | 0.651 | 0.386 | -0.0064 | -0.0509 | -0.0072 | -0.0632 | -0.0042 | -0.0703 | -0.0258 | -0.0367 | 0.0002 | 0.0655 | -0.0404 | -0.0678 | -0.026 | 0.0059
COc1nnc2ccc(N3CCC(c4ccc(OCCN5CCN(C)C(=O)[C@H]5C)cc4)CC3)nn12 [AZD5153] + Cn1cnc2c(F)c(Nc3ccc(Br)cc3Cl)c(C(=O)NOCCO)cc21 [Selumetinib] (first compound max 1 µM, 7x7, partner max 10 µM) | 0.556 | 0.516 | 0.517 | 0.786 | 0.61 | 0.469 | 0.0339 | -0.0096 | -0.0452 | -0.0668 | 0.0089 | -0.114 | -0.0006 | 0.0081 | -0.0383 | -0.0869 | -0.044 | -0.0454 | -0.0543 | 0.0383
Cc1c2c(nn1C)CSCc1cc(n(C)n1)CSc1cc(c3ccccc3c1)OCCCc1c(C(=O)O)n(C)c3c-2c(Cl)ccc13 [AZD5991] + CCN(CCO)CCCOc1ccc2c(Nc3cc(CC(=O)Nc4cccc(F)c4)[nH]n3)ncnc2c1 [AZD2811] (first compound max 1 µM, 7x7, partner max 1 µM) | 0.689 | 0.816 | 0.88 | 0.984 | 0.834 | 0.315 | -0.0193 | 0.0012 | 0.0534 | 0.0711 | 0.0125 | -0.0567 | -0.0014 | 0.0121 | 0.0185 | -0.0356 | 0.0438 | 0.0088 | 0.0011 | -0.0538
CN(CCO)CC[C@H](CSc1ccccc1)Nc1ccc(S(=O)(=O)NC(=O)c2ccc(N3CCC([C@@H](O)c4ccccc4-c4ccc(Cl)cc4)CC3)cc2)cc1S(=O)(=O)C(F)(F)F [AZD4320] + C[C@@H]1COCCN1C2=NC(=NC(=C2)C3(CC3)[S@](=N)(=O)C)C4=C5C=CNC5=NC=C4 [AZD6738] (first compound max 1 µM, 7x7, partner max 10 µM) | 0.976 | 0.673 | 1 | 0.954 | 0.816 | 0.83 | -0.0083 | -0.0226 | 0.0256 | 0.0762 | 0.0253 | -0.0734 | -0.0873 | -0.0094 | -0.0251 | -0.0378 | -0.0115 | 0.0039 | 0.0192 | -0.0432
COc1cc2ncnc(Nc3ccc(F)c(Cl)c3)c2cc1OCCCN1CCOCC1 [Gefitinib] + CC(C)n1c(=O)n(C)c2cnc3cc(F)c(-c4ccc(OCCCN5CCCCC5)nc4)cc3c21 [AZD1390] (first compound max 10 µM, 7x7, partner max 0.3 µM) | 0.229 | 0.184 | 0.244 | 0.399 | 0.0854 | 0.201 | -0.0201 | -0.0752 | -0.0621 | -0.0252 | -0.0319 | -0.0999 | -0.0215 | -0.086 | -0.0513 | -0.0693 | -0.0851 | -0.0788 | -0.0613 | -0.0726
Cc1cc2ncnn2cc1Nc1ncc2c(n1)n(C1CCOCC1)c(=O)n2C [AZD7648] + C=CCn1c(=O)c2cnc(Nc3ccc(N4CCN(C)CC4)cc3)nc2n1-c1cccc(C(C)(C)O)n1 [AZD1775] (first compound max 10 µM, partner max 1 µM) | 0.613 | 0.582 | 0.602 | 0.45 | 0.52 | 0.541 | -0.0027 | 0.0338 | -0.0696 | -0.0043 | 0.0203 | 0.0016 | -0.047 | 0.0035 | -0.124 | 0.0152 | -0.0394 | 0.0189 | -0.0044 | -0.0661
